# Key:
# [1] = Gramicidin-based fluorescence quench assay for changes of lipid bilayer properties (LUVs); format: physicochemical; conditions: 1 to 10 µM
# Text: To further probe this, we used a fluorescence quench assay for drug-induced changes of lipid bilayer properties ([Ingólfsson and Andersen, 2010]) (Figure 6—figure supplement 3A; see Materials and methods), in which changes in gramicidin channel function is used as a reporter of membrane modification. […] The persistent BINA response is thus consistent with a model where BINA readily partitions into the plasma membrane lipid bilayer (and possibly other lipidic compartments).
# The gramicidin-based fluorescence assay has been described previously ([Ingólfsson and Andersen, 2010]). In brief, large unilamellar vesicles (LUVs), loaded with intravesicular ANTS were prepared from DC22:1PC and gramicidin (weight ratio 1000:1, corresponding to a ~ 2000:1 molar ratio) using freeze-drying, extrusion and size-exclusion chromatography; the final lipid concentration was 4–5 mM; the suspension was stored in the dark at 12.5°C for a maximum of 7 days. […] Before use, the LUV-ANTS stock was diluted to 200–250 μM lipid with NaNO3 buffer (140 mM NaNO3, 10 mM HEPES, pH 7).
# The NAMs and PAMs (dissolved in DMSO) or DMSO (as control) were added to a LUV-ANTS sample and equilibrated at 25°C in the dark for 10 min. before the mixture was loaded into a stopped-flow spectrofluorometer (Applied Photophysics SX.20, Leatherhead, UK) and mixed with either NaNO3 buffer or TlNO3 buffer; Tl^+ (thallous ion) is a gramicidin channel-permeant quencher of the ANTS fluorescence. Samples were excited at 352 nm and the fluorescence signal above 455 nm was recorded in the absence (four successive trials) or presence (nine successive trials) of the quencher. All the NAM and PAM derivatives fluoresce to varying degrees and addition of these drugs to LUVs in control experiments without gA or Tl^+ increased the fluorescence signal, and each signal was normalized to account for the compound's fluorescence. […] The quench rate (Rate), the rate of Tl^+ influx, was determined at 2 ms: Rate=β/τ0⋅(t/τ0)^β−1|2ms […]
# [2] = molecular target: T1, full-length mGluR2 (SNAP-mGluR2) (Rattus norvegicus, UniProt P31421); test: GIRK activation assay, whole cell patch clamp, HEK 293T cells expressing full-length mGluR2; format: cell-based; conditions: for EC50: read-out: GIRK activation EC50
# T1 construct: HEK 293T cells expressing full-length mGluR2; expressed in transfected cells; host or cells: HEK 293T
# T1 sequence (P31421 19-872): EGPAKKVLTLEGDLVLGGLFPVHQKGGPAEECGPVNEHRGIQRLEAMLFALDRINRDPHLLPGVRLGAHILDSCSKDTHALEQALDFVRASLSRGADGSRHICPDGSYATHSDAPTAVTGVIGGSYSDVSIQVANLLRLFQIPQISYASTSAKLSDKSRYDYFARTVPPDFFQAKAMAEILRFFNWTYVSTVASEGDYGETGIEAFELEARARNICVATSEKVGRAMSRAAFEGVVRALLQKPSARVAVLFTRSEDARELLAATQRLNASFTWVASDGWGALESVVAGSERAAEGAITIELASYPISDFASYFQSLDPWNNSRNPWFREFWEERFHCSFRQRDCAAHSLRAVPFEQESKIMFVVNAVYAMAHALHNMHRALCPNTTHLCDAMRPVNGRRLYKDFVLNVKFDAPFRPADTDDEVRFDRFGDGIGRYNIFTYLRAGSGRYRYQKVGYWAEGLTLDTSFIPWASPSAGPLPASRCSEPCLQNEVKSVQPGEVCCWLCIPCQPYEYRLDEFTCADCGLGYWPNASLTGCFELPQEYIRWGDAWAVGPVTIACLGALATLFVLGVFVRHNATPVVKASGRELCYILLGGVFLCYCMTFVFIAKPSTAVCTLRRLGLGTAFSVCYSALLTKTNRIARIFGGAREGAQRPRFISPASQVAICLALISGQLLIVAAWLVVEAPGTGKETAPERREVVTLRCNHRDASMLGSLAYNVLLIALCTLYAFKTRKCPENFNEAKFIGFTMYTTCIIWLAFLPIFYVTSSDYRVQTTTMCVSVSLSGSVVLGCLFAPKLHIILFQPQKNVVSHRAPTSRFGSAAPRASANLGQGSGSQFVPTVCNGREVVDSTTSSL
# Procedure: (§1) Cells were cultured in DMEM with 5% FBS on poly-L-lysine-coated glass coverslips. DNA plasmids were transfected into cells using Lipofectamine 3000 (Thermo Fisher). […] For single-molecule pulldown (SiMPull) experiments, cells were transfected with 0.7 μg DNA of HA and SNAP-tagged receptor constructs, unless otherwise noted.
# Whole-cell patch clamp recordings from single isolated cells were performed 24–36 hr after transfection in a high-potassium extracellular solution containing (in mM): 120 KCl, 29 NaCl, 1 MgCl2, 2 CaCl2 and 10 HEPES, pH 7.4. Cells were voltage clamped to −60 mV using an Axopatch 200B amplifier (Axon Instruments) and membrane currents were recorded. Glass pipettes of resistance between 3 and 8 MΩ were filled with intracellular solution containing (in mM): 140 KCl, 10 HEPES, 3 Na2ATP, 0.2 Na2GTP, 5 EGTA and 3 MgCl2, pH 7.4. Data were acquired with a 2 kHz acquisition rate and filtered with the amplifier 4-pole Bessel filter at 1 kHz. Drugs were prepared in extracellular solution and applied using a gravity-driven perfusion system. Data were analyzed with Clampfit (Molecular Devices) and Prism (GraphPad). Data for all conditions came from at least two separate transfections.
# [3] = molecular target: T2, SNAP-mGluR2-TMD (Rattus norvegicus, UniProt P31421); test: Inter-TMD FRET assay in living HEK 293T cells; format: cell-based; conditions: for EC50: SNAP-mGluR2-TMD labeled with donor and acceptor, normalized to saturating LY48, mean ± s.e.m., read-out: inter-TMD FRET increase EC50
# T2 construct: mGluR2-TMD (rat) starts at Q558; expressed in transfected cells; host or cells: HEK 293T
# T2 sequence (P31421 558-872 limits assumed): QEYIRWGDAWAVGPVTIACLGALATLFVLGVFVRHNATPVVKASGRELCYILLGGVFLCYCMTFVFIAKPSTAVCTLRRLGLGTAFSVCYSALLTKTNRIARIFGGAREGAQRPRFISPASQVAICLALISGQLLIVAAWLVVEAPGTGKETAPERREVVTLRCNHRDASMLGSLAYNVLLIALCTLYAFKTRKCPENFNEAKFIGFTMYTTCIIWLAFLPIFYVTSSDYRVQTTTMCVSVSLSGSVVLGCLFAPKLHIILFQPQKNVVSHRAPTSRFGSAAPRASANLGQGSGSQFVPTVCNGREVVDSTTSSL
# Text: We therefore sought to develop a FRET sensor that reports on activation-associated motions driven by allosteric drugs and hypothesized that an N-terminal fluorophore on the isolated TMD should report on any inter-TMD rearrangement while allowing the receptor to maintain G-protein coupling (Figure 3A). […] To test if LBD-independent inter-TMD rearrangement is a feature of other mGluRs, we asked if donor and acceptor conjugation to SNAP-mGluR5-TMD would allow for the detection a FRET response to a PAM.
# as §1, with “noted. For FRET experiments, cells were transfected with either SNAP-tagged constructs at 0.5–0.7 μg of DNA/well or SNAP and CLIP-tagged constructs at a ratio of 1:2 with 0.3 μg of SNAP DNA/well.” for “noted.”
# (§2) Fluorophores were diluted in EX solution, which was also used to wash coverslips following labeling and prior to mounting on the microscope. After labeling, cells were mounted on an inverted microscope (Olympus IX73) and imaged with a 60x objective. […] Clusters of cells were analyzed together using ImageJ and FRET was calculated as FRET=(IAcceptor)/(IDonor +IAcceptor) where I is fluorescence intensity. No corrections were made for bleed-through between channels or the contribution of donor-donor or acceptor-acceptor dimers as analysis was limited to relative FRET changes between drug treatments rather than absolute FRET values. […] FRET changes calculated for dose–response curves were normalized to the response to saturating […] applied within the same recording and dose–response curves were obtained from multiple cell clusters and averaged from at least three separate experiments. Dose–response curves were fit using Prism (Graphpad). All drugs were purchased from Tocris, prepared in EX solution, and delivered with a gravity-driven perfusion system. For kinetics measurements a pressurized perfusion system (Automate Scientific) was used to produce a flow rate of 0.5 mL/s. Kinetic analysis was performed in Microsoft Excel. The time between 10% and 90% FRET increase or decrease was determined manually. For photo-bleaching/donor-recovery experiments, images were taken in donor and acceptor channels at baseline and again followed by a 1 min exposure to 640 nm laser illumination at maximum intensity. All experiments were performed at room temperature. All data were produced from at least two separate transfections for each condition.
# [4] = molecular target: T3, SNAP-mGluR2 (full-length) (Rattus norvegicus, UniProt P31421); test: Inter-LBD FRET assay with full-length SNAP-mGluR2; format: cell-based; conditions: drug applied alone, saturating concentrations
# T3 construct: HEK 293T cells expressing full-length mGluR2; expressed in transfected cells; host or cells: HEK 293T
# T3 sequence (P31421 19-872): as the sequence (P31421 19-872) above
# Text: We next sought to further probe the variation in PAM-induced inter-TMD FRET changes. […] We used an inter-LBD FRET assay to assess the relative strength of allosteric modulation by different mGluR2 PAMs. Agonists induce a decrease in FRET between fluorophore-conjugated N-terminal SNAP- and CLIP-tags (Figure 4E). […] We tested this effect for all PAMs by applying a saturating concentration of DCG-IV followed by co-application of a saturating concentration of each PAM, which produced further FRET decreases (Figure 4F,G).
# as §2
# [5] = molecular target: T4, SNAP-mGluR2 (Rattus norvegicus, UniProt P31421); test: Single-molecule pulldown (SiMPull) photobleaching step counting, full-length SNAP-mGluR2; conditions: saturating (1 mM) glutamate
# T4 construct: HEK 293T cells expressing full-length mGluR2; expressed in transfected cells; host or cells: HEK 293T
# T4 sequence (P31421 19-872): as above
# Procedure: To restrict our analysis to surface-targeted receptors, we expressed N-terminally SNAP-tagged receptor variants and labeled them with membrane-impermeable fluorophores.
# To test this, we incubated SNAP-mGluR2-TMD expressing cells and lysates with PAMs or NAMs during the SiMPull experiment.
# Briefly, to prevent non-specific sticking of proteins, flow chambers were prepared with mPEG-passivated glass slides and coverslips doped with ~1% biotinylated mPEG, as previously described. Prior to each experiment, chambers were incubated with 0.2 mg/mL NeutrAvidin (ThermoFisher) for 2 min followed by 10 nM of a biotinylated anti-HA antibody (abcam ab26228) for 20–30 min. After each conjugation step, the chambers were washed with T50 buffer (50 mM NaCl, 10 mM Tris, pH 7.5).
# After labeling, cells were dissociated from coverslips by incubating with Ca^2+-free PBS for 20 min followed by gentle pipetting. […] Following 1 hr of lysis at 4°C, cells were centrifuged at 16,000 g for 20 min before the supernatant was collected and maintained on ice. The cell lysate was diluted in a 0.1% detergent dilution buffer to obtain sparse immobilization of labeled protein on the passivated slide. […]
# Single molecules were imaged with a 100x objective on an inverted microscope (Olympus IX73) in total internal reflection fluorescence (TIRF) mode. […]
# [6] = molecular target: SNAP-mGluR5-TMD (Homo sapiens, UniProt P41594); test: Inter-TMD FRET assay with SNAP-mGluR5-TMD; format: cell-based, H. sapiens; conditions: mGluR5 PAM applied alone
# SNAP-mGluR5-TMD, sequence (P41594 570-876 limits assumed): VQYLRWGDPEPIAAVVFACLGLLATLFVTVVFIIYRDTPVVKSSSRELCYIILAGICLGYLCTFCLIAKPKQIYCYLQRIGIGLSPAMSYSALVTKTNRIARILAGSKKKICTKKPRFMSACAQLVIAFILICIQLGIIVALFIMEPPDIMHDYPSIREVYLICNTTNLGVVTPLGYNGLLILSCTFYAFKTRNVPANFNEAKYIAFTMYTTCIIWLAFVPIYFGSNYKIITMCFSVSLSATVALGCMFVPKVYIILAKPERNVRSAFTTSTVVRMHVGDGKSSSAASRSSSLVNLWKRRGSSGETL
Compound,EC50 [2],EC50 [3],inter-TMD FRET response onset ([3]; saturating concentrations),inter-TMD FRET response reversal ([3]; saturating concentrations),direct effect on inter-LBD FRET (no orthosteric agonist for modulators) [4],also measured
Cc1c(OCc2cccc(-c3ccc(C(=O)O)cc3)c2)cc2c(c1C)C(=O)C(C1CCCC1)C2 (stereo not drawn) [BINA],,,,,,changes in gramicidin channel function (membrane properties) [1]: greatest changes in gramicidin channel function
CCS(=O)(=O)N(Cc1cccnc1)c1cccc(-c2ccc(C#N)cc2)c1 [CBiPES],460 ± 200 nM,3500 ± 200 nM,10 to 40 s,< 2 min,no FRET response,inter-TMD FRET kinetics relative to LY48 [3]: substantially faster ON and OFF kinetics
N[C@@H](CCC(=O)O)C(=O)O [Glutamate],,,,,large FRET decrease,"GIRK current time 10% to 90% ([2]; saturating: 10 µM LY48, 1 mM Glutamate): 1.9 ± 0.5 s; two-step bleaching events of SNAP-mGluR2 with glutamate [5]: ~ 60%"
Cc1c(C(N)=O)nc2n1C[C@@H](COc1ccc(C(C)(C)C)cc1)O2 [TASP],380 ± 110 nM,900 ± 100 nM,10 to 40 s,< 2 min,no FRET response,"maximum inter-TMD FRET increase relative to LY48 ([3]; saturating concentrations, compared to saturating LY48): ~ 1.3 times that of LY48"
O=C(NC1CCC1)c1ccc(C#Cc2cccc(F)c2)nc1 [VU0360172],,,,,,inter-TMD FRET response of SNAP-mGluR5-TMD [6]: reversible FRET response
"O=C(O)c1cc(O)c2cccc(O)c2n1 [XA, Xanthurenic acid]",,,,,,"inter-TMD FRET response to drug alone ([3]; drug applied alone, XA up to 50 µM): neither inter-TMD FRET changes"
